{
  "source": "paper PMC6658524",
  "about": "“Lysosomal degradation of newly formed insulin granules contributes to β cell failure in diabetes” (Nature Communications, 2019)",
  "key": {"mTOR": {"target": "mTOR (Homo sapiens, UniProt P42345)", "assay": "60-kinase selectivity panel, % inhibition at […]", "format": "biochemical"}, "p38α": {"target": "T1, p38α (Homo sapiens, UniProt Q16539)", "T1 construct": "gene MAPK14", "assay": "biochemical", "set-up": "Kinase inhibition by mobility shift assay (Caliper)"}, "p38γ (SAPK3)": {"target": "T2, p38γ (SAPK3) (Homo sapiens, UniProt P53778)", "T2 construct": "gene MAPK12", "assay": "biochemical", "set-up": "Kinase inhibition by mobility shift assay (Caliper)"}, "Flt1(h)": {"target": "Flt1(h) (Homo sapiens, UniProt P17948)", "assay": "biochemical", "set-up": "Eurofins KinaseProfiler panel of 60 kinases, per cent inhibition", "text": "(§1) A more detailed account of the discovery, chemistry and biochemical properties of this novel class of selective p38δ inhibitors will be given elsewhere."}, "GSK3α(h)": {"target": "T3, GSK3α(h) (Homo sapiens, UniProt P49840)", "T3 construct": "gene GSK3A", "assay": "biochemical", "set-up": "Eurofins KinaseProfiler panel of 60 kinases, per cent inhibition", "text": "as §1"}, "Hck(h) activated": {"target": "Hck(h) activated (Homo sapiens, UniProt P08631)", "assay": "biochemical", "set-up": "Eurofins KinaseProfiler panel of 60 kinases, per cent inhibition", "text": "as §1"}, "IKKε(h)": {"target": "T4, IKKε(h) (Homo sapiens, UniProt Q14164)", "T4 construct": "gene IKBKE", "T4 sequence (Q14164 whole entry)": "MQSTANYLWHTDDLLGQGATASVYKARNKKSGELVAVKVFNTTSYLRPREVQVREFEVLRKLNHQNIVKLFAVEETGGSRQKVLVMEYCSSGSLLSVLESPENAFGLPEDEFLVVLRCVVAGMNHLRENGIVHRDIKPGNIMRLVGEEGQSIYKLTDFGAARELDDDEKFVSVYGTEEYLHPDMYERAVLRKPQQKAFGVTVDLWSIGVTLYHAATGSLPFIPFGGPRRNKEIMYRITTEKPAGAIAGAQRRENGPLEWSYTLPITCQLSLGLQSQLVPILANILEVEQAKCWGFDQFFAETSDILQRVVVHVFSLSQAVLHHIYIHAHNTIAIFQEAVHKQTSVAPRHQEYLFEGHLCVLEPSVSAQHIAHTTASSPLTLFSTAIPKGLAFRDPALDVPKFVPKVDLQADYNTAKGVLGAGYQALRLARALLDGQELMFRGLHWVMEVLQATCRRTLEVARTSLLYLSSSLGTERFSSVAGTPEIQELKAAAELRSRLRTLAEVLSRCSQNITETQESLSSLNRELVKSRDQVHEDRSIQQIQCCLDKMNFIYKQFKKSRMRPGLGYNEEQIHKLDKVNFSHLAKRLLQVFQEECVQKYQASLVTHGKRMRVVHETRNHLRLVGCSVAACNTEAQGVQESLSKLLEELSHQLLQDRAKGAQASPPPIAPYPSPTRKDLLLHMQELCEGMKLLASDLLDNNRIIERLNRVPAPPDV", "assay": "biochemical", "set-up": "Eurofins KinaseProfiler panel of 60 kinases, per cent inhibition", "text": "as §1"}, "IR(h)": {"target": "T5, IR(h) (Homo sapiens, UniProt P06213)", "T5 construct": "gene INSR", "assay": "biochemical", "set-up": "Eurofins KinaseProfiler panel of 60 kinases, per cent inhibition", "text": "as §1"}, "Lck(h) activated": {"target": "Lck(h) activated (Homo sapiens, UniProt P06239)", "assay": "biochemical", "set-up": "Eurofins KinaseProfiler panel of 60 kinases, per cent inhibition", "text": "as §1"}, "PDGFRα(h)": {"target": "T6, PDGFRα(h) (Homo sapiens, UniProt P16234)", "T6 construct": "gene PDGFRA", "T6 sequence (P16234 whole entry)": "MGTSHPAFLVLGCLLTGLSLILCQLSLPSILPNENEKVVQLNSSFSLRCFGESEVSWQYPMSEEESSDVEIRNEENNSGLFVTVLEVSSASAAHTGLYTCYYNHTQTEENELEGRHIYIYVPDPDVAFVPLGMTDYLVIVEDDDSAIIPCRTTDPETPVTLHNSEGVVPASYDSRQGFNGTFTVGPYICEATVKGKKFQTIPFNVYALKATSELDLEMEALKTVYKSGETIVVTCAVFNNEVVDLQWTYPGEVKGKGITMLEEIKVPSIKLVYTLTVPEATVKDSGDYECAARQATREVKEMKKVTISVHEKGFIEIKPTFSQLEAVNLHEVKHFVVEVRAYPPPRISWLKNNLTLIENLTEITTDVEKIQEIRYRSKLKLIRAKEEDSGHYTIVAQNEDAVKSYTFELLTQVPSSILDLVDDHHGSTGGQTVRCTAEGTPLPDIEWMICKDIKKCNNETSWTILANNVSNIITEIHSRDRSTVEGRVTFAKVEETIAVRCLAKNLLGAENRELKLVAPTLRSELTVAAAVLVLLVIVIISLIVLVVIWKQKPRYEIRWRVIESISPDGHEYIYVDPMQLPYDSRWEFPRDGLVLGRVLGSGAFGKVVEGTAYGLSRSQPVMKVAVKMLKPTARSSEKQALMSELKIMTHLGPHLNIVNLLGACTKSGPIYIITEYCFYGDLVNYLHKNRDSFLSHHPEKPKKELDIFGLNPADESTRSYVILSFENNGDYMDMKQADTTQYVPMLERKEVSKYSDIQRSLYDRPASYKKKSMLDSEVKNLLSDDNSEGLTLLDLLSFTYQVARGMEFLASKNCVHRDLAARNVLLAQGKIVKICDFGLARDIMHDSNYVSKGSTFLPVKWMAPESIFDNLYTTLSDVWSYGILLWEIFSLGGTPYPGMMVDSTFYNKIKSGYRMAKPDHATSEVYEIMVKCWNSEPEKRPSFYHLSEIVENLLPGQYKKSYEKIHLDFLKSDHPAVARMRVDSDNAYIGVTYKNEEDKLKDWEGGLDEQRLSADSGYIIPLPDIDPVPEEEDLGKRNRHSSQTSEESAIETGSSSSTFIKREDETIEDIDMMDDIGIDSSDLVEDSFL", "assay": "biochemical", "set-up": "Eurofins KinaseProfiler panel of 60 kinases, per cent inhibition", "text": "as §1"}, "[1]": {"target": "T7, PI3 Kinase (p110α/p85α)(h) (Homo sapiens, UniProt P42336)", "T7 construct": "gene PIK3CA; p110α/p85α", "T7 sequence (P42336 whole entry)": "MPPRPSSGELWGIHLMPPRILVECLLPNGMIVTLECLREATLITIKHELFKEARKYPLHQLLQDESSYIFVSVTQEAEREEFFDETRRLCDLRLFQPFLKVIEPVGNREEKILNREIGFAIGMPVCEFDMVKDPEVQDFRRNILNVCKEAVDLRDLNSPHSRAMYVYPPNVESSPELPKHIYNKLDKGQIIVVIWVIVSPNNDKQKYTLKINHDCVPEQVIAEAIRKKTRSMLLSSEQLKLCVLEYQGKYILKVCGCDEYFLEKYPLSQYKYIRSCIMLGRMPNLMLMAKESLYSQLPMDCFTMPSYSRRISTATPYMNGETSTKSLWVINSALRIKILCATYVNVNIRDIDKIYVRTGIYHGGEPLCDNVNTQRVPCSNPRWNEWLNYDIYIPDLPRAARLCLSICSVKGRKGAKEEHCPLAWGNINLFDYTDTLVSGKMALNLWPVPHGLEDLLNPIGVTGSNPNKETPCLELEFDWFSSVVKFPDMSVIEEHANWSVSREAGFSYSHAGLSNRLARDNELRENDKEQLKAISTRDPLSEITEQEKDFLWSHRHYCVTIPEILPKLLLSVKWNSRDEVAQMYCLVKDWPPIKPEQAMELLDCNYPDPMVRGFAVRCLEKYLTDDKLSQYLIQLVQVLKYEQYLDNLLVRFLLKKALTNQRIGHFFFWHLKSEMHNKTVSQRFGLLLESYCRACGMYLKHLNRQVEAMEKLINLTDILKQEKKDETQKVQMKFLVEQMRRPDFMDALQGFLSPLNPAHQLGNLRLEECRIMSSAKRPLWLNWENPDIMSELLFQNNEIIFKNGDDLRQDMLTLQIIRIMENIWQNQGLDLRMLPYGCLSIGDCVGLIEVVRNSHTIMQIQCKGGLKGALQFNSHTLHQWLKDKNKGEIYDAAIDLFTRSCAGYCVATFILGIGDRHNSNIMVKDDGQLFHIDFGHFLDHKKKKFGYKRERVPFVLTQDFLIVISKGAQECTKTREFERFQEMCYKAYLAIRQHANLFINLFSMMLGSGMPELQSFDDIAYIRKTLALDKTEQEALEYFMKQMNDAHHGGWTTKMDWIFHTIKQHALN", "T7 sequence (P27986 whole entry partner)": "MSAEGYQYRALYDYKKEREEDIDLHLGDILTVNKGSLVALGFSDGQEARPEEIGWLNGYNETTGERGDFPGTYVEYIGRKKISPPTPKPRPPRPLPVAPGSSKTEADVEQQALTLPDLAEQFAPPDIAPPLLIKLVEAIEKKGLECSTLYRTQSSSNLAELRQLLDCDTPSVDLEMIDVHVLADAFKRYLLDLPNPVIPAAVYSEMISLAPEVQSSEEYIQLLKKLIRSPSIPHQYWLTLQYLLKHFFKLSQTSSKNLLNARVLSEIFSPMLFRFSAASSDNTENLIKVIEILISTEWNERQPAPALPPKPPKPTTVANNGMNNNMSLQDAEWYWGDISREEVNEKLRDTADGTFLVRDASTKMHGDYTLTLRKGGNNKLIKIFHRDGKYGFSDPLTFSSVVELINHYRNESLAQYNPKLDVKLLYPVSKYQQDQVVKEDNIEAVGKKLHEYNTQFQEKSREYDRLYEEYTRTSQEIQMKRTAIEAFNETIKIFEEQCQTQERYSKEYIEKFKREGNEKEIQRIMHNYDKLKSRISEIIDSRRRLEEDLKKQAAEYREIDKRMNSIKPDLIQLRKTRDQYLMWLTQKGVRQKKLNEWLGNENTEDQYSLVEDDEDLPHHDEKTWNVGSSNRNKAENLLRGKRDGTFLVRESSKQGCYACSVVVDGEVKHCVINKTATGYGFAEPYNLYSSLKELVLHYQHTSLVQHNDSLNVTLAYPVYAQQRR", "assay": "biochemical", "set-up": "Eurofins KinaseProfiler panel of 60 kinases, per cent inhibition", "text": "as §1"}, "PKCζ(h)": {"target": "T8, PKCζ(h) (Homo sapiens, UniProt Q05513)", "T8 construct": "gene PRKCZ", "assay": "biochemical", "set-up": "Eurofins KinaseProfiler panel of 60 kinases, per cent inhibition", "text": "as §1"}, "PKCθ(h)": {"target": "T9, PKCθ(h) (Homo sapiens, UniProt Q04759)", "T9 construct": "gene PRKCQ", "T9 sequence (Q04759 whole entry)": "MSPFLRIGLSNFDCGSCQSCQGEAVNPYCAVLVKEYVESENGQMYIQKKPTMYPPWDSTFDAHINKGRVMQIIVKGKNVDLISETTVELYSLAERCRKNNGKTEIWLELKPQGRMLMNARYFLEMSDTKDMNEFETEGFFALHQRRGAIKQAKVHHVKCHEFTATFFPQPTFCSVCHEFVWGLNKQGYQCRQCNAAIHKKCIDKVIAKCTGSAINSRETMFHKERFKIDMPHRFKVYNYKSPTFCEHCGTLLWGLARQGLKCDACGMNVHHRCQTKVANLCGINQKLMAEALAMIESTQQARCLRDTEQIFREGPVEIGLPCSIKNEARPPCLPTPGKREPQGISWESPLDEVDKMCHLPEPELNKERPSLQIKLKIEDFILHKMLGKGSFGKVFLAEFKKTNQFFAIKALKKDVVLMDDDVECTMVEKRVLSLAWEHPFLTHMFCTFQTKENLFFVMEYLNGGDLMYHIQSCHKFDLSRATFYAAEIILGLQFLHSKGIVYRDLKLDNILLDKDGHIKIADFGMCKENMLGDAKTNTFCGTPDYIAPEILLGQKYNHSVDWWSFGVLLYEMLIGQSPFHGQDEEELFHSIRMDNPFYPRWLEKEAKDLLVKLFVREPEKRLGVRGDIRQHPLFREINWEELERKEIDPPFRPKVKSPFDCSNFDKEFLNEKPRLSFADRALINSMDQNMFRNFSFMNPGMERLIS", "assay": "biochemical", "set-up": "Eurofins KinaseProfiler panel of 60 kinases, per cent inhibition", "text": "as §1"}, "Rsk1(h)": {"target": "T10, Rsk1(h) (Homo sapiens, UniProt Q15418)", "T10 construct": "gene RPS6KA1", "assay": "biochemical", "set-up": "Eurofins KinaseProfiler panel of 60 kinases, per cent inhibition", "text": "as §1"}, "Syk(h)": {"target": "Syk(h) (Homo sapiens, UniProt P43405)", "assay": "biochemical", "set-up": "Eurofins KinaseProfiler panel of 60 kinases, per cent inhibition", "text": "as §1"}, "TrkA(h)": {"target": "T11, TrkA(h) (Homo sapiens, UniProt P04629)", "T11 construct": "gene NTRK1", "T11 sequence (P04629 whole entry)": "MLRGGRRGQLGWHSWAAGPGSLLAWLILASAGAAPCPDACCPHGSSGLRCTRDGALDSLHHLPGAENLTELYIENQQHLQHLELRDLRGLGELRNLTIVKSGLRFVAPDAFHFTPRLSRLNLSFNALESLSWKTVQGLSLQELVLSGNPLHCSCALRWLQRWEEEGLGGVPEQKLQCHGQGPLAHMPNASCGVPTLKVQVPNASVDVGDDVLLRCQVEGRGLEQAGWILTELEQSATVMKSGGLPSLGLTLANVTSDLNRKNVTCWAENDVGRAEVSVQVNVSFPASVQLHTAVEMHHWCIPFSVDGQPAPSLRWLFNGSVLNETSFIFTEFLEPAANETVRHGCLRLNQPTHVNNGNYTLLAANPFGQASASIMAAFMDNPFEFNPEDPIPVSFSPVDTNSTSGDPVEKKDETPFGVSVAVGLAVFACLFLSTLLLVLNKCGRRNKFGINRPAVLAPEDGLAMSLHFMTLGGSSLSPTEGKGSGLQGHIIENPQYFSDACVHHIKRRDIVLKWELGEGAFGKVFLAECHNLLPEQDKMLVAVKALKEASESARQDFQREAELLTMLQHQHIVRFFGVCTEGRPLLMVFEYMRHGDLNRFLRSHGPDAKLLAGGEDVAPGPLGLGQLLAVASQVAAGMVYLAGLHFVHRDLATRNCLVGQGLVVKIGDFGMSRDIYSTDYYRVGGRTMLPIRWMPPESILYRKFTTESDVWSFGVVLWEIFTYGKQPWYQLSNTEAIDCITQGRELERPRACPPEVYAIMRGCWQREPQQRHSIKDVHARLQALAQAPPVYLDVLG", "assay": "biochemical", "set-up": "Eurofins KinaseProfiler panel of 60 kinases, per cent inhibition", "text": "as §1"}, "cKit(h)": {"target": "T12, cKit(h) (Homo sapiens, UniProt P10721)", "T12 construct": "gene KIT", "assay": "biochemical", "set-up": "Eurofins KinaseProfiler panel of 60 kinases, per cent inhibition", "text": "as §1"}},
  "data": [
    {"smiles": "CCN1CCOc2nc(N3CCOCC3)nc(-c3ccc(NC(=O)OC)cc3)c2C1=O", "note": "[Compound A]", "values": [
      {"measurement": "% inhibition at 10 μM", "setting": "mTOR", "result": 48},
      {"measurement": "IC50", "setting": "p38α", "result": "> 30000", "unit": "nM"},
      {"measurement": "IC50", "setting": "p38γ (SAPK3)", "result": 710, "unit": "nM"},
      {"measurement": "inhibition at 1 µM", "setting": "Flt1(h)", "result": -30, "unit": "%"},
      {"measurement": "inhibition at 10 µM", "setting": "Flt1(h)", "result": -28, "unit": "%"},
      {"measurement": "inhibition at 1 µM", "setting": "GSK3α(h)", "result": -9, "unit": "%"},
      {"measurement": "inhibition at 10 µM", "setting": "GSK3α(h)", "result": -7, "unit": "%"},
      {"measurement": "inhibition at 1 µM", "setting": "Hck(h) activated", "result": -5, "unit": "%"},
      {"measurement": "inhibition at 10 µM", "setting": "Hck(h) activated", "result": 5, "unit": "%"},
      {"measurement": "inhibition at 1 µM", "setting": "IKKε(h)", "result": 16, "unit": "%"},
      {"measurement": "inhibition at 10 µM", "setting": "IKKε(h)", "result": 18, "unit": "%"},
      {"measurement": "inhibition at 1 µM", "setting": "IR(h)", "result": -21, "unit": "%"},
      {"measurement": "inhibition at 10 µM", "setting": "IR(h)", "result": -14, "unit": "%"},
      {"measurement": "inhibition at 1 µM", "setting": "Lck(h) activated", "result": -7, "unit": "%"},
      {"measurement": "inhibition at 10 µM", "setting": "Lck(h) activated", "result": 13, "unit": "%"},
      {"measurement": "inhibition at 1 µM", "setting": "PDGFRα(h)", "result": 1, "unit": "%"},
      {"measurement": "inhibition at 10 µM", "setting": "PDGFRα(h)", "result": 0, "unit": "%"},
      {"measurement": "inhibition at 1 µM", "setting": "[1]", "result": -1, "unit": "%"},
      {"measurement": "inhibition at 10 µM", "setting": "[1]", "result": 2, "unit": "%"},
      {"measurement": "inhibition at 1 µM", "setting": "PKCζ(h)", "result": 0, "unit": "%"},
      {"measurement": "inhibition at 10 µM", "setting": "PKCζ(h)", "result": 10, "unit": "%"},
      {"measurement": "inhibition at 1 µM", "setting": "PKCθ(h)", "result": 7, "unit": "%"},
      {"measurement": "inhibition at 10 µM", "setting": "PKCθ(h)", "result": 7, "unit": "%"},
      {"measurement": "inhibition at 1 µM", "setting": "Rsk1(h)", "result": -11, "unit": "%"},
      {"measurement": "inhibition at 10 µM", "setting": "Rsk1(h)", "result": 5, "unit": "%"},
      {"measurement": "inhibition at 1 µM", "setting": "Syk(h)", "result": 4, "unit": "%"},
      {"measurement": "inhibition at 10 µM", "setting": "Syk(h)", "result": 20, "unit": "%"},
      {"measurement": "inhibition at 1 µM", "setting": "TrkA(h)", "result": -21, "unit": "%"},
      {"measurement": "inhibition at 10 µM", "setting": "TrkA(h)", "result": 5, "unit": "%"},
      {"measurement": "inhibition at 1 µM", "setting": "cKit(h)", "result": 4, "unit": "%"},
      {"measurement": "inhibition at 10 µM", "setting": "cKit(h)", "result": 6, "unit": "%"}
    ]}
  ]
}
